Laboratory results taken from patent US20170334899A1, “AMINO-SUBSTITUTED ISOTHIAZOLES” (Bayer Pharma Aktiengesellschaft, priority 2014, published 2017).

tested on: HeLa; test: Proliferation assay (crystal violet), HeLa; assay type: cell-based; details: Homo sapiens, HeLa, 96 h, HeLa cells; 4 days incubation; crystal violet staining; read-out: IC50 inhibition of proliferation, HeLa
Method in brief: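 Seed 1000–5000 cells/well, 10% FCS; 24 h later replace medium and add compound (0.001–10 μM, 0.5% DMSO); incubate 4 d; glutaraldehyde fix, 0.1% crystal violet pH 3.0, elute with 10% acetic acid; A595; 4-parameter IC50.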

IC50	SMILES
0.87 µM	Cc1nsc(Nc2cnc3ccccc3n2)c1C(=O)Nc1ccc(OC2CCN(CC(F)(F)F)CC2)nc1 [Example 21, 3-Methyl-5-(quinoxalin-2-ylamino)-N-(6-{[1-(2,2,2-trifluoroethyl)piperidin-4-yl]oxy}-pyridin-3-yl)-1,2-thiazole-4-carboxamide]
7.6 µM	CC(=O)N1CCC(Oc2ccc(NC(=O)c3c(C)nsc3Nc3cnc4ccccc4n3)cn2)CC1 [Example 22, N-{6-[(1-acetylpiperidin-4-yl)oxy]pyridin-3-yl}-3-methyl-5-(quinoxalin-2-ylamino)-1,2-thiazole-4-carboxamide]
2.6 µM	Cc1nsc(Nc2cc(C#N)ccn2)c1C(=O)Nc1ccc(OC2CCN(C(=O)OC(C)(C)C)CC2)nc1 [Example 23, tert-Butyl 4-({5-[({5-[(4-cyanopyridin-2-yl)amino]-3-methyl-1,2-thiazol-4-yl}-carbonyl)amino]pyridin-2-yl}oxy)piperidine-1-carboxylate]
10 µM	Cc1nsc(Nc2cc(C#N)ccn2)c1C(=O)Nc1ccc(OC2CCNCC2)nc1 [Example 24, 5-[(4-Cyanopyridin-2-yl)amino]-3-methyl-N-[6-(piperidin-4-yloxy)pyridin-3-yl]-1,2-thiazole-4-carboxamide]
2.1 µM	Cc1nsc(Nc2cc(C#N)ccn2)c1C(=O)Nc1ccc(OC2CCN(CC(F)(F)F)CC2)nc1 [Example 25, 5-[(4-Cyanopyridin-2-yl)amino]-3-methyl-N-(6-{[1-(2,2,2-trifluoroethyl)piperidin-4-yl]oxy}pyridin-3-yl)-1,2-thiazole-4-carboxamide]
10 µM	CCN1CCC(Oc2ccc(NC(=O)c3c(C)nsc3Nc3cc(C#N)ccn3)cn2)CC1 [Example 26, 5-[(4-Cyanopyridin-2-yl)amino]-N-{6-[(1-ethylpiperidin-4-yl)oxy]pyridin-3-yl}-3-methyl-1,2-thiazole-4-carboxamide]
0.63 µM	Cc1nsc(Nc2ccc(C#N)cn2)c1C(=O)Nc1ccc(OC2CCN(C(=O)OC(C)(C)C)CC2)nc1 [Example 27, tert-Butyl 4-({5-[({5-[(5-cyanopyridin-2-yl)amino]-3-methyl-1,2-thiazol-4-yl}-carbonyl)amino]pyridin-2-yl}oxy)piperidine-1-carboxylate]
3.1 µM	Cc1nsc(Nc2cnc3ccccc3n2)c1C(=O)Nc1ccc(N2CCN(C(=O)OC(C)(C)C)CC2)nc1 [Example 248, tert-butyl 4-[5-({[3-methyl-5-(quinoxalin-2-ylamino)-1,2-thiazol-4-yl]carbonyl}amino)pyridin-2-yl]piperazine-1-carboxylate]
6.2 µM	Cc1nsc(Nc2cnc3ccccc3n2)c1C(=O)Nc1cccc(C(=O)NC2CC2)c1 [Example 249, N-[3-(cyclopropylcarbamoyl)phenyl]-3-methyl-5-(quinoxalin-2-ylamino)-1,2-thiazole-4-carboxamide]
> 10 µM	Cc1nsc(Nc2ccc(C#N)cn2)c1C(=O)Nc1cccc(C(=O)NC2CC2)c1 [Example 250, 5-[(5-cyanopyridin-2-yl)amino]-N-[3-(cyclopropylcarbamoyl)phenyl]-3-methyl-1,2-thiazole-4-carboxamide]
4.5 µM	CCNC(=O)c1cccc(NC(=O)c2c(C)nsc2Nc2cnc3ccccc3n2)c1 [Example 251, N-[3-(ethylcarbamoyl)phenyl]-3-methyl-5-(quinoxalin-2-ylamino)-1,2-thiazole-4-carboxamide]
> 10 µM	CCNC(=O)c1cccc(NC(=O)c2c(C)nsc2Nc2ccc(C#N)cn2)c1 [Example 252, 5-[(5-cyanopyridin-2-yl)amino]-N-[3-(ethylcarbamoyl)phenyl]-3-methyl-1,2-thiazole-4-carboxamide]
3.1 µM	Cc1nsc(Nc2cnc3ccccc3n2)c1C(=O)Nc1cccc(C(=O)NC(C)C)c1 [Example 253, N-[3-(isopropylcarbamoyl)phenyl]-3-methyl-5-(quinoxalin-2-ylamino)-1,2-thiazole-4-carboxamide]
> 10 µM	Cc1nsc(Nc2cc(C#N)ccn2)c1C(=O)Nc1cccc(C(=O)NC(C)C)c1 [Example 254, 5-[(4-cyanopyridin-2-yl)amino]-N-[3-(isopropylcarbamoyl)phenyl]-3-methyl-1,2-thiazole-4-carboxamide]
6.1 µM	Cc1nsc(Nc2ccc(C#N)cn2)c1C(=O)Nc1cccc(C(=O)NC(C)C)c1 [Example 255, 5-[(5-cyanopyridin-2-yl)amino]-N-[3-(isopropylcarbamoyl)phenyl]-3-methyl-1,2-thiazole-4-carboxamide]
> 10 µM	COC(=O)CCCc1ccc(NC(=O)c2c(C)nsc2Nc2cc(C#N)ccn2)cc1 [Example 256, methyl 4-{4-[({5-[(4-cyanopyridin-2-yl)amino]-3-methyl-1,2-thiazol-4-yl}carbonyl)amino]phenyl}butanoate]
7.7 µM	COC(=O)CCc1cccc(NC(=O)c2c(C)nsc2Nc2cnc3ccccc3n2)c1 [Example 257, methyl 3-[3-({[3-methyl-5-(quinoxalin-2-ylamino)-1,2-thiazol-4-yl]carbonyl}amino)phenyl]propanoate]
7 µM	Cc1nsc(Nc2cnc3ccccc3n2)c1C(=O)Nc1cccc(NS(=O)(=O)C2CCN(C(=O)OC(C)(C)C)CC2)c1 [Example 258, tert-butyl 4-{[3-({[3-methyl-5-(quinoxalin-2-ylamino)-1,2-thiazol-4-yl]carbonyl}amino)phenyl]sulfamoyl} piperidine-1-carboxylate]
> 10 µM	Cc1nsc(Nc2cnc(C(F)(F)F)cn2)c1C(=O)Nc1ccc(C(=O)NC2CCN(CC(F)F)CC2)cc1 [Example 259, N-(4-{[1-(2,2-difluoroethyl)piperidin-4-yl]carbamoyl}phenyl)-3-methyl-5-{[5-(trifluoromethyl)pyrazin-2-yl]amino}-1,2-thiazole-4-carboxamide]
1.5 µM	Cc1nsc(Nc2cnc(C(F)(F)F)cn2)c1C(=O)Nc1ccc(C(=O)N2CCN(CC(F)(F)F)CC2)cc1 [Example 260, 3-methyl-N-(4-{[4-(2,2,2-trifluoroethyl)piperazin-1-yl]carbonyl}phenyl)-5-{[5-(trifluoromethyl)pyrazin-2-yl]amino}-1,2-thiazole-4-carboxamide]
4.8 µM	CCN1CCN(C(=O)c2ccc(NC(=O)c3c(C)nsc3Nc3cnc(C(F)(F)F)cn3)cc2)CC1 [Example 261, N-{4-[(4-ethylpiperazin-1-yl)carbonyl]phenyl}-3-methyl-5-{[5-(trifluoromethyl)pyrazin-2-yl]amino}-1,2-thiazole-4-carboxamide]
9.4 µM	Cc1nsc(Nc2cnc(C(F)(F)F)cn2)c1C(=O)Nc1ccc(C(=O)N2CCN(C)CC2)cc1 [Example 262, 3-methyl-N-{4-[(4-methylpiperazin-1 yl)carbonyl]phenyl}-5-{[5-(trifluoromethyl)pyrazin-2-yl]amino}-1,2-thiazole-4-carboxamide]
3.2 µM	Cc1nsc(Nc2cc(C#N)ccn2)c1C(=O)Nc1ccc(OC2CCN(CC(F)F)CC2)nc1 [Example 263, 5-[(4-cyanopyridin-2-yl)amino]-N-(6-{[1-(2,2-difluoroethyl)piperidin-4-yl]oxy}pyridin-3-yl)-3-methyl-1,2-thiazole-4-carboxamide]
0.13 µM	Cc1nsc(Nc2cnc(C(F)(F)F)cn2)c1C(=O)Nc1ccc(F)c(OC2CCN(CC(F)(F)F)CC2)c1 [Example 264, N-(4-fluoro-3-{[1-(2,2,2-trifluoroethyl)piperidin-4-yl]oxy}phenyl)-3-methyl-5-{[5-(trifluoromethyl)pyrazin-2-yl]amino}-1,2-thiazole-4-carboxamide]
